Measured values: patent US20100151572A1, “ANTI-TUMORAL COMPOSITIONS METHODS” (priority 2005, published 2010)

Experiments:
[1] = tested on: Nc1nc(F)nc2c1ncn2[C@@H]1O[C@H](CO)[C@@H](O)[C@@H]1O; assay: purified protein, by the assay type; details: other: substrate of E. coli PNP
[2] = tested on: Nc1nc(F)nc2c1ncn2[C@H]1C[C@H](O)[C@@H](CO)O1; assay: purified protein, by the assay type; assay type: biochemical; details: other: substrate of E. coli PNP
Text: (§1) Table 1 describes the kinetic constants underlying these enzymatic reactions with E. coli PNP.

[3] = tested on: Cc1ncnc2c1ncn2[C@H]1C[C@H](O)[C@@H](CO)O1; assay: purified protein, by the assay type; assay type: biochemical; details: other: substrate of E. coli PNP
Text: as §1

D54 human glioma tumors = assay: Ad-PNP injection of D54 tumors followed by F-araAMP; assay type: in vivo; details: two days after vector administration, 2x10^9 PFU
Procedure: D54 human glioma tumors (appx. 250 mg) are injected with an Ad-PNP (2×10^9 PFU, open circles) or saline (closed circles). PNP activity in tumor extracts taken two days after vector administration is approximately 5000 PNP units.

[4] = F-Ade plasma levels after prodrug injection in tumor-bearing mice; assay type: in vivo; details: 20 mg/kg 3H-F-dAdo ip; 5, 15, 30, 60 min; D54 parental, D54/PNP MuLv, D54/lentiPNP tumors
Procedure: Measurements of generation and clearance of circulating F-Ade are made by HPLC for example. Radiolabeled prodrug is obtained from Moravek Biochemicals and injected into mice by the same route and dosage used in efficacy experiments for comparison. Plasma samples are removed at increasing time intervals after injection of prodrug and analyzed by reverse-phase HPLC for parent compound and base. Identification of prodrug and F-Ade is by HPLC as described above.
When tumors are approximately 200 mg the mice are injected intraperitoneally with 20 mg/kg 3H-F-dAdo. […] Four mice from each group are sacrificed 5, 15, 30, and 60 minutes after injection of F-dAdo, and plasma samples were obtained. The amount of F-Ade is determined in each plasma sample using reverse phase HPLC, as described.
A similar experiment is conducted with F-araAMP. […] The limit of detection in these experiments with fludarabine is approximately 1 micromolar.

[5] = Maximally tolerated dose of prodrug in mice; assay type: in vivo
Procedure: For experiments shown in FIG. 7, sixteen mice are implanted subcutaneously with D54 parental, no PNP expression cells, D54/PNP MuLv, approximately 250 PNP units), or D54/lentiPNP, […] PNP units tumor cells as described for efficacy evaluations. When tumors are approximately 200 mg the mice are injected intraperitoneally with 20 mg/kg 3H-F-dAdo. This dose of F-dAdo is the maximally tolerated dose of F-dAdo when given 5 times daily for 3 consecutive days. Four mice from each group are sacrificed 5, 15, 30, and 60 minutes after injection of F-dAdo, and plasma samples were obtained. The amount of F-Ade is determined in each plasma sample using reverse phase HPLC, as described.
There is no difference in the F-Ade plasma levels in mice bearing tumors with different levels of E. coli PNP activity, which is consistent with the fact that the MTD of F-dAdo is not reduced in mice bearing tumors that express E. coli PNP.
A similar experiment is conducted with F-araAMP. […] The limit of detection in these experiments with fludarabine is approximately 1 micromolar. As with F-dAdo, the MTD of F-araAMP is not reduced in mice bearing tumors that express E. coli PNP (either from lentivirus or MuLv), or when given in combination with vectors that express E. coli PNP.

[6] = in vivo; cited from earlier work
[7] = Systemic dose response tolerability in mice, human dose by Freireich formula; assay type: in vivo
Text: The formula of Freireich et al., Cancer Chemother. Rep., 50:219 244, (1966) can be used to determine the maximum tolerated dose of substrate for a human subject. […] This amount or slightly less should be tolerated in humans with minimal side effects. Furthermore, it is understood that modes of administration that permit the substrate to remain localized at or near the site of the tumor will be effective at lower doses than systemically administered substrates.

[8] = tested on: D54 tumors (no PNP expression); assay: Control D54 tumors without PNP expression, drug treatment in vivo; details: at maximally tolerated doses

E. coli PNP (Escherichia coli K-12)
Km [1]: 960 µM
Vmax [1]: 0.0983 µmol/min/mg
Km [2]: 22 µM
Vmax [2]: 7.08 µmol/min/mg
Km [3]: 125 µM
Vmax [3]: 24.3 µmol/min/mg

Ad-PNP
PNP activity in tumor extracts (D54 human glioma tumors): approximately 5000 PNP units

Nc1nc(F)nc2c1ncn2[C@H]1C[C@H](O)[C@@H](CO)O1 [2-F-dAdo, 2-fluoro-2′-deoxyadenosine]
F-Ade plasma levels in mice bearing tumors with different levels of E. coli PNP activity [4]: no difference
maximally tolerated dose ([5]; mouse, in vivo, 3 days): 20 mg/kg
MTD in mice bearing tumors that express E. coli PNP ([5]; versus mice without PNP tumors): not reduced

Nc1nc(F)nc2c1ncn2[C@@H]1O[C@H](CO)[C@@H](O)[C@@H]1O [F-araA, 9-(beta-D-arabinofuranosyl)-2-fluoroadenine]
circulating half life [6]: 50 min
peak levels compared with MeP-dR [6]: significantly higher

Cc1ncnc2c1ncn2[C@@H]1O[C@H]([C@H](C)O)[C@@H](O)[C@H]1O [5′-methyl(talo)MeP-R]
human dosage determined by formula of Freireich ([7]; 200 mg/kg times 3, from mouse data): 600 mg/m^2
tolerability ([7]; mice, systemic, 200 mg per kg per day for 3 days (3 doses total)): well tolerated

O=NN(CCCl)C(=O)NCCCl [BCNU]
activity against D54 tumors [8]: minimal activity
